Reference: ChEMBL document CHEMBL3044534, “Antitumor and antileishmanial evaluation of novel heterocycles derived from quinazoline scaffold: a molecular modeling approach” (2013)

How the values were obtained:
Type in all cases: functional
Leishmania donovani [1] = assay: Antileishmanial activity against axenic amastigotes of Leishmania donovani assessed as growth inhibition at 50 uM; settings: read-out: GI
SF-268 = assay: Growth inhibition of Homo sapiens (human) SF268 cells after 48 hr by SRB assay; settings: SF-268, 48 h
MCF7 = assay: Growth inhibition of Homo sapiens (human) MCF7 cells after 48 hr by SRB assay; settings: MCF7, 48 h
NCI-H460 = assay: Growth inhibition of Homo sapiens (human) NCI-H460 cells after 48 hr by SRB assay; settings: NCI-H460, 48 h
Leishmania donovani [2] = assay: Antileishmanial activity against axenic amastigotes of Leishmania donovani assessed as growth inhibition
Leishmania donovani [3] = assay: Antileishmanial activity against axenic amastigotes of Leishmania donovani assessed as growth inhibition at 1 uM; settings: read-out: GI

Row | GI50 (MCF7) [µM] | GI50 (NCI-H460) [µM] | Compound | inhibition of growth at 50 µM (Leishmania donovani [1]) [%] | GI50 (SF-268) [µM] | GI50 (Leishmania donovani [2]) [µM] | inhibition of growth at 1 µM (Leishmania donovani [3]) [%]
1 | 64.9 | 78.6 | Cc1nc2ccccc2c(=O)n1NC(=S)Nc1ccccc1 | 98 | 56.8 | 12 | –
2 | 22.9 | 43.6 | Cc1nc2ccccc2c(=O)n1-n1c(C)cc(=O)n(-c2ccccc2)c1=S | 66 | 36.8 | 12 | –
3 | 0.03 | 0.02 | Cc1nc2ccccc2c(=O)n1NC(=O)/C(Cl)=C/c1ccccc1 | 80 | 0.05 | 26 | –
4 | 40.6 | 32.6 | Cc1nc2ccccc2c(=O)n1NC1=CSC(=C(C#N)C#N)N1c1ccccc1 | 44 | 60.4 | 18 | –
5 | 11.9 | 14.1 | Cc1nc2ccccc2c(=O)n1NC(=O)C1Nc2ccccc2C1=O (centres undefined) | 92 | 20.3 | 13 | –
6 | 0.7 | 0.2 | CC1=CC(C)N(c2ccccc2)C(=S)N1n1c(C)nc2ccccc2c1=O (centres undefined) | 48 | 0.03 | – | –
7 | 22 | 30.6 | Cc1nc2ccccc2c(=O)n1/N=C1\SCC(=O)N1c1ccccc1 | 44 | 38.4 | 12 | –
8 | 36 | 28 | Cc1nc2ccccc2c(=O)n1/N=c1\scc(N)n1-c1ccccc1 | 96 | 22.5 | 10 | –
9 | 22.6 | 12.9 | Cc1nc2ccccc2c(=O)n1NCC(=O)NNc1ccccc1 | 22 | 24.8 | 28 | –
10 | 32 | 17.3 | Cc1nc2ccccc2c(=O)n1Nc1cc2ccccc2oc1=O | 70 | 22.3 | – | –
11 | 10.9 | 12.1 | Cc1nc2ccccc2c(=O)n1NC(=O)c1cc2ccccc2o1 | 28 | 22.3 | 14 | –

Further lines, the molecule ahead of its results:

Row | Compound | GI50 (MCF7) [µM] | GI50 (NCI-H460) [µM] | inhibition of growth at 50 µM (Leishmania donovani [1]) [%] | GI50 (SF-268) [µM] | GI50 (Leishmania donovani [2]) [µM] | inhibition of growth at 1 µM (Leishmania donovani [3]) [%]
12 | Cc1nc2ccccc2c(=O)n1NC(=O)CCl | 50.1 | 23.2 | 60 | 18.4 | – | –
13 | COc1ccc(/C=C(\Cl)C(=O)Nn2c(C)nc3ccccc3c2=O)cc1 | 0.9 | 0.6 | 84 | 0.8 | 28 | –
14 | Cc1nc2ccccc2c(=O)n1NC(=O)/C(Cl)=C/c1ccc(Cl)cc1 | 70.6 | 38.9 | 50 | 50.8 | 18 | –
15 | CCOC(=O)CNn1c(C)nc2ccccc2c1=O | 20.9 | 22.6 | 44 | 26.8 | 10 | –
16 | Cc1nc2ccccc2c(=O)n1NCC(=O)NN | 11.8 | 14.5 | 58 | 16.7 | 22 | –
17 | Cc1nc2ccccc2c(=O)n1NCc1nc2ccccc2[nH]1 | 20 | 22 | 85 | 31.5 | – | –
18 | CCOC(=O)c1c(N)cc(N)n1-n1c(C)nc2ccccc2c1=O | 0.4 | 0.1 | 40 | 0.9 | – | –
19 | CCOC(=O)c1c(N)cc(O)n1-n1c(C)nc2ccccc2c1=O | 13.1 | 0.9 | 60 | 11.5 | 18 | –
20 | Cc1nc2ccccc2c(=O)n1Nc1csc(N)n1 | 0.01 | 0.2 | 72 | 0.4 | 22 | –
21 | C[C@@H]1[C@H](O)[C@@H](C)/C=C/C=C/C=C/C=C/C=C/C=C/C=C/[C@H](O[C@@H]2O[C@H](C)[C@@H](O)[C@H](N)[C@@H]2O)C[C@@H]2O[C@](O)(C[C@@H](O)C[C@@H](O)[C@H](O)CC[C@@H](O)C[C@@H](O)CC(=O)O[C@H]1C)C[C@H](O)[C@H]2C(=O)O [AMPHOTERICIN B] | – | – | – | – | – | 98
22 | COc1cccc2c1C(=O)c1c(O)c3c(c(O)c1C2=O)C[C@@](O)(C(=O)CO)C[C@@H]3O[C@H]1C[C@H](N)[C@H](O)[C@H](C)O1 [DOXORUBICIN] | 0.04 | 0.09 | – | 0.09 | – | –
